Experimental data taken from ChEMBL document CHEMBL5634121, “Discovery of novel G9a/GLP covalent inhibitors for the treatment of triple-negative breast cancer” (Eur J Med Chem, 2023).

Key:
MDA-MB-231 [1] = assay: Antiproliferative activity against human MDA-MB-231 cells at 1 to 5 nM by MTT assay; assay type: functional, cell-based; settings: dose 1-5 nM, time 3-5 day, TDE = time-dependent effect
MDA-MB-231 [2] = assay: Induction of apoptosis in human MDA-MB-231 cells assessed as late apoptotic cells at 5 uM incubated for 72 hrs by Annexin V and PI staining based flow cytometry analysis (reference value: 0.45 %); assay type: functional
MDA-MB-231 [3] = assay: Induction of apoptosis in human MDA-MB-231 cells assessed as necrotic cells at 10 uM incubated for 72 hrs by Annexin V and PI staining based flow cytometry analysis (reference value: 0.32 %); assay type: functional
4T1 = assay: Antiproliferative activity against mouse 4T1 cells incubated for 3 to 5 days by MTT assay; assay type: functional, cell-based; settings: Mus musculus, 4T1; read-out: IC50

`C=CC(=O)Nc1cccc(-c2nc(NC3CCN(C)CC3)c3cc(OC)c(OC)cc3n2)c1` was tested, and the Activity (MDA-MB-231 [1]) was “Tde”, the Activity (MDA-MB-231 [2]) was 3.01% and the Activity (MDA-MB-231 [3]) was 1.28%. For the same compound, the IC50 (4T1) was 4.67 µM.
